# From patent US11834453B2, “Substituted pyrimido[5,4-d]pyrimidines as HER2 inhibitors” (Array BioPharma Inc., priority 2020, dated 2023)
# Structures can show the parent of a compound that is named as a salt. Where two headings read alike, the source gives them in different places.
# Legend:
# [1] = molecular target: ErbB2 with Exon 20 YVMA insertion (HER2-YVMA) (Homo sapiens (Human), UniProt P04626, INS775YVMA); test: Cellular phosphorylation assay, constitutive ErbB2 phosphorylation (Y1196) in engineered NIH 3T3 cells, Assay 4; type: cell-based
# Chain of ErbB2 with Exon 20 YVMA insertion (HER2-YVMA) (P04626 other isoform, or with tags, fused parts or gaps ins YVMA behind 775): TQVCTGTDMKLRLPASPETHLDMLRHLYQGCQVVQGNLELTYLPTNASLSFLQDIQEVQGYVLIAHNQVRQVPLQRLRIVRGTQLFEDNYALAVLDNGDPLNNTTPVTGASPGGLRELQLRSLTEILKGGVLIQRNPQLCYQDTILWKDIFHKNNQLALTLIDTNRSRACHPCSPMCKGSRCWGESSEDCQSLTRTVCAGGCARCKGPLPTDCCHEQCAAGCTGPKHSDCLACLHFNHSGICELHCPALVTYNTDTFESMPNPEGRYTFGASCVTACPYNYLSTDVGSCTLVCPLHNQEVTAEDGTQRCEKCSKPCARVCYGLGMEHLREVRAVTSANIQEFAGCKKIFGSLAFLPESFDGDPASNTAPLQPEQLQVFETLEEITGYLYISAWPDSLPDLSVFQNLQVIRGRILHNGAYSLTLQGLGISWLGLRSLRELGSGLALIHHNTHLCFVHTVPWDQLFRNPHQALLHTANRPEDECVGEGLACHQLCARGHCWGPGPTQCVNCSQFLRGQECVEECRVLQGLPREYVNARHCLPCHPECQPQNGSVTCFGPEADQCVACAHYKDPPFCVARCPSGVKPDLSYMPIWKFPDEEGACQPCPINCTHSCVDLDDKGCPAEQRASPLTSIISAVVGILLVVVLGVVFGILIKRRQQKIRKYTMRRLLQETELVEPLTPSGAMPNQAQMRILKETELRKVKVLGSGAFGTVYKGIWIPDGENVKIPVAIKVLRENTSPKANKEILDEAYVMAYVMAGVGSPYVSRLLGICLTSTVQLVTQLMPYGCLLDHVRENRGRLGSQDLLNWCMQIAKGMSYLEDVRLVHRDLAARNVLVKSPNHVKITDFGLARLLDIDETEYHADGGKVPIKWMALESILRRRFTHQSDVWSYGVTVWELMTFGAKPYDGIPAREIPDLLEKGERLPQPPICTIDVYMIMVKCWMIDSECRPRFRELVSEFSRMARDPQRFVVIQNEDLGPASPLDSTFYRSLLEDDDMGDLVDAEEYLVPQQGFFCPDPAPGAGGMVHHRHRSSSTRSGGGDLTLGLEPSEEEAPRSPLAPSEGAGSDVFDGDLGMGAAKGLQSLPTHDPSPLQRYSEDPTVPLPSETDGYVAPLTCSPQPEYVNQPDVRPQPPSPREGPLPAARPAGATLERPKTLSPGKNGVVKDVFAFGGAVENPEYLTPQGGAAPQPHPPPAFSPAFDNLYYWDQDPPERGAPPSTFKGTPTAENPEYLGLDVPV
# In short: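 Engineered NIH 3T3 cells expressing HER2-YVMA treated with compounds 1 h at 37 °C, then formaldehyde-fixed and methanol-permeabilized. pErbB2 Y1196 detected by in-cell infrared immunofluorescence, normalized to GAPDH. IC50 from the normalized curves.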
# EGFR = EGFR (Homo sapiens (Human), UniProt P00533); test: ErbB enzyme assay (CisBio HTRF KinEASE-TK), Assay 3; type: biochemical
# Chain of EGFR (P00533 25-1210): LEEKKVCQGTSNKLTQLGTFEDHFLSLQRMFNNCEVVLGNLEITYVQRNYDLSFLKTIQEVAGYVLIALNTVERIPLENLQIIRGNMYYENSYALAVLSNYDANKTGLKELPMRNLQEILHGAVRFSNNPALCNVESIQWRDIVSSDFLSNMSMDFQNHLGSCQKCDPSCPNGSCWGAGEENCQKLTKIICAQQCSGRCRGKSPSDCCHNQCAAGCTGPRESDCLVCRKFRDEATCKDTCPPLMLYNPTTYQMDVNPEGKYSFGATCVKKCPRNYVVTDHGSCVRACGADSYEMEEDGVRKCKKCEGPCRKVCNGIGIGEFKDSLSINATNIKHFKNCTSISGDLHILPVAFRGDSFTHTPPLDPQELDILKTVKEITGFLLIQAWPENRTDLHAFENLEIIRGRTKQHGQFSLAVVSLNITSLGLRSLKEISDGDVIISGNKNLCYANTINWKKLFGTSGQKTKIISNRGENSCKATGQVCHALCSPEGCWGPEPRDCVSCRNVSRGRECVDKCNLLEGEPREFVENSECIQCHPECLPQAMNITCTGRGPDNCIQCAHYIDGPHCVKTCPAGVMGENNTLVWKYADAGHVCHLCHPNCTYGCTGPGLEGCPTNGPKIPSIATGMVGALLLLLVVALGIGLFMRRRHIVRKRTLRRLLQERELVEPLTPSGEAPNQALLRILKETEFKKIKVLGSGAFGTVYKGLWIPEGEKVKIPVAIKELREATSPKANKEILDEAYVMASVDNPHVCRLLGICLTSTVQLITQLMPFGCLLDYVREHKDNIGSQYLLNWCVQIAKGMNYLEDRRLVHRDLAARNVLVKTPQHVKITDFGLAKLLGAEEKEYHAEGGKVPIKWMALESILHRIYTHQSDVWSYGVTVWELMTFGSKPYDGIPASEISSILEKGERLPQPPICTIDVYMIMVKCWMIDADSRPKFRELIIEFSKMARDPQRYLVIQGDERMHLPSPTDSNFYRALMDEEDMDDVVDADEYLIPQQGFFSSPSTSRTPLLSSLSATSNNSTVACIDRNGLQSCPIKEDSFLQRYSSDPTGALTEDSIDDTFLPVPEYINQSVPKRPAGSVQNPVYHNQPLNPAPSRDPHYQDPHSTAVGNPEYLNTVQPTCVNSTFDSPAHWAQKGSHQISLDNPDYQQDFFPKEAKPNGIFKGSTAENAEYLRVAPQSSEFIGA
# In short: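 Inhibition is measured as reduced peptide phosphorylation by HTRF KinEASE-TK at 1 mM ATP and 250 nM substrate, 30 min at 22 °C. Values are IC50s from a 4-parameter logistic fit.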
# ErbB2 WT = ErbB2 WT (Homo sapiens (Human), UniProt P04626); test: ErbB enzyme assay (CisBio HTRF KinEASE-TK), Assay 2; type: biochemical
# Chain of ErbB2 WT (P04626 23-1255): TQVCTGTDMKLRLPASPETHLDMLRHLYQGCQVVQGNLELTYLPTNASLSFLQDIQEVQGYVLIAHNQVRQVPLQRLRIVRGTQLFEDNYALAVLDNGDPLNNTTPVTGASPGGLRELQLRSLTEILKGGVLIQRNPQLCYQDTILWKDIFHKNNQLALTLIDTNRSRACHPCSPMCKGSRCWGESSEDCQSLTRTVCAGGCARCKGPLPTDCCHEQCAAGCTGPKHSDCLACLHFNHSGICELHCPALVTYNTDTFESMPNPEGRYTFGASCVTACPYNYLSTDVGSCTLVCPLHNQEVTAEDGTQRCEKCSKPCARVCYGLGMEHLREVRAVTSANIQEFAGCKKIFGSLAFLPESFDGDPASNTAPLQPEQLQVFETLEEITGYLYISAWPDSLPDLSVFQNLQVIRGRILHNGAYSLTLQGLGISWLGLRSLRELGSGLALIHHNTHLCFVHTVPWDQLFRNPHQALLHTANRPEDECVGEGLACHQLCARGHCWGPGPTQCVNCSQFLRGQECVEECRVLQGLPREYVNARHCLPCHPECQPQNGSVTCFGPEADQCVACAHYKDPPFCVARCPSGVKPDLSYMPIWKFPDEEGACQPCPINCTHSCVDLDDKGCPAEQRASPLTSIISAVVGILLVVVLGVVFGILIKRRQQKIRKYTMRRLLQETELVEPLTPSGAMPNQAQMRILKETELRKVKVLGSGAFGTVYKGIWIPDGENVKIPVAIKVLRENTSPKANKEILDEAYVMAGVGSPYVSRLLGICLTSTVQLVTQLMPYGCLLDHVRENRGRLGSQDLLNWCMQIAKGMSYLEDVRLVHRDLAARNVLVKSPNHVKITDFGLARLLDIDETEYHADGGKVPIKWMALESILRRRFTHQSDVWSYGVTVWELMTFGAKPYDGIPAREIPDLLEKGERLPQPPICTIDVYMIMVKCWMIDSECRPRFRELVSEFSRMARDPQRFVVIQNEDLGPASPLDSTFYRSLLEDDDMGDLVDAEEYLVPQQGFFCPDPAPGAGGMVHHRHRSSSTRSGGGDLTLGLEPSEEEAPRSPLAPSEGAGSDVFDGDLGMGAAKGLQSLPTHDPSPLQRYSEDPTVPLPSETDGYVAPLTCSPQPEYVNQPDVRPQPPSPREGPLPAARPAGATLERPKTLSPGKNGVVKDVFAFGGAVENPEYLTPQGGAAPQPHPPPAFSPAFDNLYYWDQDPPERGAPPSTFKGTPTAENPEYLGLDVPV
# In short: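 ErbB2 phosphorylates 250 nM biotin-TK substrate at 1 mM ATP in 25 mM HEPES pH 7.4, 10 mM MgCl2, 0.01% Triton X-100 and 2% DMSO, for 30 min at 22 °C. Product is detected by HTRF with Sa-XL665 and TK-Ab-Cryptate. Percent of control is set by DMSO-only wells and pre-quenched wells.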
# [2] = molecular target: ErbB2 insYVMA (HER2-YVMA, SEQ ID NO: 2) (Homo sapiens, UniProt P04626, INS775YVMA/P1170A); test: biochemical; settings: ErbB2 insYVMA enzyme assay
# EGFR wild type (EGFR WT) = EGFR wild type (EGFR WT) (Homo sapiens (Human), UniProt P00533); test: Cellular phosphorylation assay, EGF-stimulated EGFR phosphorylation in engineered NIH 3T3 cells, Phospho-EGFR DuoSet IC ELISA, Assay 5; type: cell-based
# Chain of EGFR wild type (EGFR WT) (P00533 25-1210): as the sequence (P00533 25-1210) above
# In short: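 NIH 3T3 cells expressing EGFR WT (20,000/well, attached overnight) were exposed to serially diluted compound for 1 h at 37 °C, then stimulated with 100 ng/ml rEGF for 10 min. Phospho-EGFR in lysates measured by sandwich ELISA optical density; IC50 from curves.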
SMILES,IC50 [1] [nM],IC50 (EGFR) [nM],IC50 (ErbB2 WT) [nM],IC50 ([2]; read-out: Assay 1 IC50) [nM],IC50 (EGFR wild type (EGFR WT)) [nM],IC50 ([2]; Assay 1 IC50 (nM)) [nM]
Cc1cc(Nc2ncnc3cnc(N4C[C@@H]5[C@H](C4)[C@@H]4CC[C@H]5O4)nc23)ccc1Oc1ccc2c(c1)ncn2C [Example 363],26.2,≥ 10000,72.4,26.1,≥ 5000,–
"COC[C@H](C)Nc1ncc2ncnc(Nc3ccc(Oc4ccc5c(c4)ncn5C)c(C)c3)c2n1 [Example 62, (S)—N2-(1-methoxypropan-2-yl)-N8-(3-methyl-4-((1-methyl-1H-benzo[d]imidazol-5-yl)oxy)phenyl)pyrimido[5,4-d]pyrimidine-2,8-diamine]",27.1,≥ 10000,112,39.8,≥ 5000,–
Cc1cc(Nc2ncnc3cnc(N4CCN[C@@H](C(F)(F)F)C4)nc23)ccc1Oc1ccn2ncnc2c1 [Example 421],69.9,4940,43,29.3,≥ 5000,–
"Cc1cc(Nc2ncnc3cnc(NC4CC(F)(F)C4)nc23)ccc1Oc1ccc2c(c1)ncn2C [Example 30, N2-(3,3-difluorocyclobutyl)-N8-(3-methyl-4-((1-methyl-1H-benzo[d]imidazol-5-yl)oxy)phenyl)pyrimido[5,4-d]pyrimidine-2,8-diamine]",165,≥ 10000,196,104,≥ 5000,–
Clc1cc(Nc2ncnc3cnc(N4CCN5CCOC[C@@H]5C4)nc23)ccc1Oc1ccn2ncnc2c1 [Example 431],232,≥ 10000,63.1,21.8,≥ 5000,–
Cc1cc(Nc2ncnc3cnc(N4C[C@H]5COC[C@H]5C4)nc23)ccc1Oc1ccc2c(c1)ncn2C [Example 466],16.2,≥ 10000,61.3,24.1,≥ 5000,–
Clc1cc(Nc2ncnc3cnc(N4CC[C@@H]5COC[C@H]54)nc23)ccc1Oc1ccn2ncnc2c1 [Example 376],30.8,1200,11.7,13.3,≥ 5000,–
Cc1cc(Nc2ncnc3cnc(N4CC[C@]5(CCO5)C4)nc23)ccc1Oc1ccc2c(c1)ncn2C [Example 375],14.9,≥ 10000,34,22.8,≥ 5000,–
CC1(O)CN(c2ncc3ncnc(Nc4ccc(Oc5ccn6ncnc6c5)c(Cl)c4)c3n2)C1 [Example 324],124,≥ 10000,119,64.4,≥ 5000,–
Cc1cc(Nc2ncnc3cnc(N4CCC(C)(C#N)C4)nc23)ccc1Oc1ccc2c(c1)ncn2C (stereo not shown) [Example 475],82.6,≥ 10000,88.6,22.4,≥ 5000,–
Cn1cnc2cc(Oc3ccc(Nc4ncnc5cnc(N6C7CCC6COC7)nc45)cc3Cl)ccc21 [Example 441],89.1,9570,67.2,–,≥ 5000,106
CON1CCN(c2ncc3ncnc(Nc4cc(C)c(Oc5ccc6c(c5)ncn6C)cc4F)c3n2)CC1 [Example 486],133,≥ 10000,138,29.6,≥ 5000,–
"Cc1ncc(-c2ncc3ncnc(Nc4ccc(Oc5ccc6c(c5)ncn6C)c(C)c4)c3n2)s1 [Example 42, N-(3-methyl-4-((1-methyl-1H-benzo[d]imidazol-5-yl)oxy)phenyl)-6-(2-methylthiazol-5-yl)pyrimido[5,4-d]pyrimidin-4-amine]",16.8,≥ 10000,176,58.2,≥ 5000,–
CN(CCC(C)(C)O)c1ncc2ncnc(Nc3ccc(Oc4ccc5c(c4)ncn5C)c(Cl)c3)c2n1 [Example 479],12.9,2210,24.4,26.5,≥ 5000,–
Cc1cc(Nc2ncnc3cnc(N(C)C[C@@H]4COCCO4)nc23)ccc1Oc1ccc2c(c1)ncn2C [Example 353],18.1,≥ 10000,47.5,48.2,≥ 5000,–
Cc1cc(Nc2ncnc3cnc(N4CCOCC4)nc23)ccc1Oc1ccc2csnc2c1 [Example 243],173,2490,264,40.6,3040,–

SMILES,IC50 [1] [nM],IC50 (EGFR) [nM],IC50 (ErbB2 WT) [nM],IC50 ([2]; read-out: Assay 1 IC50) [nM],IC50 (EGFR wild type (EGFR WT)) [nM],IC50 ([2]; Assay 1 IC50 (nM)) [nM]
FC(F)(F)[C@H]1CN(c2ncc3ncnc(Nc4ccc(Oc5ccn6ncnc6c5)c(Cl)c4)c3n2)CCN1 [Example 429],46.6,3950,39.6,11.2,≥ 5000,–
N#CC[C@H]1CCN(c2ncc3ncnc(Nc4ccc(Oc5ccn6ncnc6c5)c(Cl)c4)c3n2)C1 [Example 406],63.6,8280,32.3,16.6,≥ 5000,–
"CN1CCN(c2ncc3ncnc(Nc4ccc(Oc5ccc6c(c5)ncn6C)c(Cl)c4)c3n2)CC1 [Example 143, N-(3-chloro-4-((1-methyl-1H-benzo[d]imidazol-5-yl)oxy)phenyl)-6-(4-methylpiperazin-1-yl)pyrimido[5,4-d]pyrimidin-4-amine 2,2,2-trifluoroacetate]",28.2,7410,50.7,–,≥ 5000,35.1
C[C@H]1CN(c2ncc3ncnc(Nc4ccc(Oc5ccc6c(c5)ncn6C)c(Cl)c4)c3n2)CCO1 [Example 450],13.4,4010,55,26.1,≥ 5000,–
Cc1cc(Nc2ncnc3cnc(O[C@H]4CNCC[C@@H]4F)nc23)ccc1Oc1ccc2c(c1)ncn2C [Example 289],73.9,≥ 10000,584,109,≥ 5000,–
Cc1cc(Nc2ncnc3cnc(N(C)CC(C)(C)O)nc23)c(F)cc1Oc1ccc2c(c1)ncn2C [Example 491],78.6,≥ 10000,36.9,27.8,≥ 5000,–
CCN(CC(C)(C)O)c1ncc2ncnc(Nc3ccc(Oc4ccc5c(c4)ncn5C)c(C)c3)c2n1 [Example 478],109,≥ 10000,41.6,27.9,≥ 5000,–
"Cc1cc(Nc2ncnc3cnc(N4CC(O)(C(F)F)C4)nc23)ccc1Oc1ccc2c(c1)ncn2C [Example 160, 3-(difluoromethyl)-1-(8-((3-methyl-4-((1-methyl-1H-benzo[d]imidazol-5-yl)oxy)phenyl)amino)pyrimido[5,4-d]pyrimidin-2-yl)azetidin-3-ol hydrochloride]",42.8,6760,67.2,–,≥ 5000,20.3
Cc1cc(Nc2ncnc3cnc(N4CCOC[C@H]4C)nc23)ccc1Oc1ccc2c(c1)ncn2C [Example 257],9.4,3270,8.2,19.8,≥ 5000,–
Cc1cc(Nc2ncnc3cnc(O[C@H]4CN(C)CC[C@@H]4F)nc23)ccc1Oc1ccc2c(c1)ncn2C [Example 296],68.2,≥ 10000,141,59.6,≥ 5000,–
Cc1cc(Nc2ncnc3cnc(N4CCOC5CC54)nc23)ccc1Oc1ccn2ncnc2c1 (stereo not shown) [Example 382],397,6010,68.9,34.5,≥ 5000,–
O[C@H]1CN(c2ncc3ncnc(Nc4ccc(Oc5ccn6ncnc6c5)c(Cl)c4)c3n2)CC[C@@H]1F [Example 338],65.2,1990,12.8,13.2,≥ 5000,–
O[C@H]1C[C@H]2C[C@@H]1CN2c1ncc2ncnc(Nc3ccc(Oc4ccn5ncnc5c4)c(Cl)c3)c2n1 [Example 335],143,4110,24.1,15.7,≥ 5000,–
O=S1(=O)CC[C@@H]2CN(c3ncc4ncnc(Nc5ccc(Oc6ccn7ncnc7c6)c(Cl)c5)c4n3)C[C@@H]21 [Example 433],385,≥ 10000,67.4,29.3,≥ 5000,–
Cc1cc(Nc2ncnc3cnc(N(C)CC(F)F)nc23)ccc1Oc1ccn2ncnc2c1 [Example 372],153,7310,70.7,15.1,≥ 5000,–
Cn1cnc2cc(Oc3ccc(Nc4ncnc5cnc(N6C[C@H]7C[C@@H]6CO7)nc45)cc3Cl)ccc21 [Example 455],58.2,≥ 10000,176,48.7,≥ 5000,–
